Activity calls are given as the source filed them. The rule behind the calls is not given here. Peptide text beside a SMILES is read from it. * marks the point of attachment. X1 = CC(=O)N[C@H]1[C@H](O[C@H]2[C@@H](O)[C@H](O)[C@@H](CO)O[C@@H]2*)O[C@H](CO)[C@@H](O[C@@H]2O[C@H](CO)[C@H](O)[C@H](O[C@]3(C(=O)O)C[C@H](O)[C@@H](NC(C)=O)[C@H]([C@H](O)[C@H](O)CO)O3)[C@H]2O)[C@@H]1O; X2 = CC(=O)N[C@H]1[C@H](O[C@H]2[C@@H](O)[C@H](O)[C@@H](CO)O[C@@H]2*)O[C@H](CO)[C@@H](O[C@@H]2O[C@H](CO)[C@H](O)[C@H](O)[C@H]2O)[C@@H]1O; GlcNAc(β1-2)αMan = CC(=O)N[C@H]1[C@H](O[C@H]2[C@@H](O)[C@H](O)[C@@H](CO)O[C@@H]2*)O[C@H](CO)[C@@H](O)[C@@H]1O; Hexanoyl(5-oxo) = CC(=O)CCCC(=O)*
What was measured:
[1] = tested on: Maackia amurensis; assay: Binding affinity to biotin-labeled Maackia amurensis agglutinin in pH 7.4 Tris buffer by fluorescence microarray method
[2] = tested on: Datura stramonium; assay: Binding affinity to biotin-labeled Datura stramonium agglutinin in pH 7.4 Tris buffer by fluorescence microarray method
[3] = tested on: Arachis hypogaea; assay: Binding affinity to biotin-labeled Arachis hypogaea agglutinin in pH 7.4 Tris buffer by fluorescence microarray method
[4] = tested on: Sambucus racemosa subsp. sieboldiana; assay: Binding affinity to biotin-labeled Sambucus sieboldiana agglutinin in pH 7.4 Tris buffer by fluorescence microarray method
[5] = tested on: Erythrina crista-galli; assay: Binding affinity to biotin-labeled Erythrina crista-galli agglutinin in pH 7.4 Tris buffer by fluorescence microarray method
[6] = tested on: Triticum aestivum; assay: Binding affinity to biotin-labeled Wheat germ agglutinin in pH 7.4 Tris buffer by fluorescence microarray method
[7] = tested on: Canavalia ensiformis; assay: Binding affinity to biotin-labeled Canavalia ensiformis agglutinin in pH 7.4 Tris buffer by fluorescence microarray method
[8] = target: Laminin subunit alpha-1 (Homo sapiens) (UniProt P25391); assay: Binding affinity to biotin-labeled human recombinant laminin-1 at 10 ug/ml in pH 7.4 Tris buffer by fluorescence microarray method
[9] = species on record: Homo sapiens; assay: Binding affinity to biotin-labeled human recombinant laminin-2 at 10 ug/ml in pH 7.4 Tris buffer by fluorescence microarray method
[10] = target: Lactotransferrin (Homo sapiens) (UniProt P02788); assay: Binding affinity to biotin-labeled lactoferrin (unknown origin) at 10 ug/ml in pH 7.4 Tris buffer by fluorescence microarray method
[11] = target: Laminin subunit alpha-1 (Homo sapiens) (UniProt P25391); assay: Binding affinity to biotin-labeled human recombinant laminin-1 at 10 ug/ml in pH 5.6 MES buffer by fluorescence microarray method
[12] = target: Lactotransferrin (Homo sapiens) (UniProt P02788); assay: Binding affinity to biotin-labeled lactoferrin (unknown origin) at 10 ug/ml in pH 5.6 MES buffer by fluorescence microarray method
[13] = species on record: Homo sapiens; assay: Binding affinity to biotin-labeled human recombinant laminin-2 at 10 ug/ml in 5.6 MES buffer by fluorescence microarray method
[14] = Binding affinity to biotin-labeled Agaricus bisporus agglutinin in pH 7.4 Tris buffer by fluorescence microarray method

Sequence of Laminin subunit alpha-1 (Homo sapiens) (P25391 whole entry): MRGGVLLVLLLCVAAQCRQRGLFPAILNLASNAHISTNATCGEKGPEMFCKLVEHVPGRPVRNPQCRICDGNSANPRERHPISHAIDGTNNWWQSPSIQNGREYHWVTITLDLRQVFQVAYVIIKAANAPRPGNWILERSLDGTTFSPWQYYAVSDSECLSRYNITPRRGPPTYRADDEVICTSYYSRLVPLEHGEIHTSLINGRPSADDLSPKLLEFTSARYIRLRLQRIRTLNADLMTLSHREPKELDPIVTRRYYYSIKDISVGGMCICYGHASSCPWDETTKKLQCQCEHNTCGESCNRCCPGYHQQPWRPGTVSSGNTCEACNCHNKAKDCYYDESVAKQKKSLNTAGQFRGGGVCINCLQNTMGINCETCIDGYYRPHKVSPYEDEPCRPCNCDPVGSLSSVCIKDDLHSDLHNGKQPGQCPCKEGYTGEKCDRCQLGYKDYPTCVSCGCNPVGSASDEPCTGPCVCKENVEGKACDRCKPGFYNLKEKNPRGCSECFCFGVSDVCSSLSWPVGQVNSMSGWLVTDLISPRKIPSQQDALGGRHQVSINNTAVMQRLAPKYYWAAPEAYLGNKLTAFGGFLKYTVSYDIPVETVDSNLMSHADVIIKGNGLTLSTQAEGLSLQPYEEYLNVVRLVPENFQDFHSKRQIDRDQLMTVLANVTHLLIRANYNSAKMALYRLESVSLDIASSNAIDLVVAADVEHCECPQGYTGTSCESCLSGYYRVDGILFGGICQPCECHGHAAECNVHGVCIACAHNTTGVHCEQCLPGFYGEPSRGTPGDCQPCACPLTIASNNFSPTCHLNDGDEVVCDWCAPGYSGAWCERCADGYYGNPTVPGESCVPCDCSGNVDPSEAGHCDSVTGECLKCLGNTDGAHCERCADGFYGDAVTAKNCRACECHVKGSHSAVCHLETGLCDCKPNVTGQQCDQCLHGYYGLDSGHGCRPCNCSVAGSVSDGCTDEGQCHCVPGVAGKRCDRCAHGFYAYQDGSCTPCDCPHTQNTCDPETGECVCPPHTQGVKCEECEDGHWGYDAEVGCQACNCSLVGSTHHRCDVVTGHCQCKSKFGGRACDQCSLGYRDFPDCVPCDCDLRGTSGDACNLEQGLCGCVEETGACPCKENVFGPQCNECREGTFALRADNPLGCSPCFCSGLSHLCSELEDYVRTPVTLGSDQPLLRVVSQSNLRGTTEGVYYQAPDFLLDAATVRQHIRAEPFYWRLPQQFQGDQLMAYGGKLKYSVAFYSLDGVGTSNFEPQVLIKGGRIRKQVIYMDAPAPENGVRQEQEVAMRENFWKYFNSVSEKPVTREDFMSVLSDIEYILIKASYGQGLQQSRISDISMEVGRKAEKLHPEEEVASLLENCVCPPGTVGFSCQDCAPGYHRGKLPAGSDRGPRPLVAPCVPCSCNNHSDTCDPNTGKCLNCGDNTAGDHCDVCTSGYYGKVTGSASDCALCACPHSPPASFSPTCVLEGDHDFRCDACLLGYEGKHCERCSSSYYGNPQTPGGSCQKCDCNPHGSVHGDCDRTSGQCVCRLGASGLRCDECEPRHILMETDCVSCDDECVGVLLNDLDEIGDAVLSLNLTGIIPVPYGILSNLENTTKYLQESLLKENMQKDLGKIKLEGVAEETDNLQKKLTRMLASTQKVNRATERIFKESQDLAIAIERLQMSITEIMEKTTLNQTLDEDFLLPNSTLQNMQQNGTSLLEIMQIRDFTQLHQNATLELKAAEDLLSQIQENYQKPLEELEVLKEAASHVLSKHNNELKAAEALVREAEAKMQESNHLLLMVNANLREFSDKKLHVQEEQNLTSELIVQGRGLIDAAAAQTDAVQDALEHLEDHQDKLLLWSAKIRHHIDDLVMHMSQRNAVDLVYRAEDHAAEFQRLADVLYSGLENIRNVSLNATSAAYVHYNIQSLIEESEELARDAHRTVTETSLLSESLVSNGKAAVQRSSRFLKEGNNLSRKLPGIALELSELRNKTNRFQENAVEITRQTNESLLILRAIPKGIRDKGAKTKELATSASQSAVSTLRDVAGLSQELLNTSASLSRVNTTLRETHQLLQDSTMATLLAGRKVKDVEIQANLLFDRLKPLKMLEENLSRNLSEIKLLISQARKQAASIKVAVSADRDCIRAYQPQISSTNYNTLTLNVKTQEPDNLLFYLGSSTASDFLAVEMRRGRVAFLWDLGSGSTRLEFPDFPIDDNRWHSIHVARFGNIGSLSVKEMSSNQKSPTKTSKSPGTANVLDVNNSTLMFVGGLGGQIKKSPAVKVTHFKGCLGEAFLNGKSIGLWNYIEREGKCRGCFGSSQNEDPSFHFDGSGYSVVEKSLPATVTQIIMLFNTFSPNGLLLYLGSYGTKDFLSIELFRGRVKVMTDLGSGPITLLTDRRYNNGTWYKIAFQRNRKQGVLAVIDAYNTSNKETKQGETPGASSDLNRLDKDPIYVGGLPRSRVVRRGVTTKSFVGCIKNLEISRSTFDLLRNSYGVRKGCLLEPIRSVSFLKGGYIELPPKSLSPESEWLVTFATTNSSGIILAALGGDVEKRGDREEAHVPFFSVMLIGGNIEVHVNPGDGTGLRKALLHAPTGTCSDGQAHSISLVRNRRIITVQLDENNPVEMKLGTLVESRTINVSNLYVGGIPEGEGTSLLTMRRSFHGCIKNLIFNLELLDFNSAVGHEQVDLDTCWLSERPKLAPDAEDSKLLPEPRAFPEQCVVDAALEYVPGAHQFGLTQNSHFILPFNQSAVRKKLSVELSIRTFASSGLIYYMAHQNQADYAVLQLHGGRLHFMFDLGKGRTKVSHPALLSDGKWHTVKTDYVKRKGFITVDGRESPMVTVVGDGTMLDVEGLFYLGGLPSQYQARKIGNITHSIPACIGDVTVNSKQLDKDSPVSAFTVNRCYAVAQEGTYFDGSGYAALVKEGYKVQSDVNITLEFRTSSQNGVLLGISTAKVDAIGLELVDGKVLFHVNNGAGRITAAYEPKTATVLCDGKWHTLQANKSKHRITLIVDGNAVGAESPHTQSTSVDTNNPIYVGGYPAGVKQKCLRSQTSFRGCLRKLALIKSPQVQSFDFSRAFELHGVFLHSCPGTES
Sequence of Lactotransferrin (Homo sapiens) (P02788 whole entry): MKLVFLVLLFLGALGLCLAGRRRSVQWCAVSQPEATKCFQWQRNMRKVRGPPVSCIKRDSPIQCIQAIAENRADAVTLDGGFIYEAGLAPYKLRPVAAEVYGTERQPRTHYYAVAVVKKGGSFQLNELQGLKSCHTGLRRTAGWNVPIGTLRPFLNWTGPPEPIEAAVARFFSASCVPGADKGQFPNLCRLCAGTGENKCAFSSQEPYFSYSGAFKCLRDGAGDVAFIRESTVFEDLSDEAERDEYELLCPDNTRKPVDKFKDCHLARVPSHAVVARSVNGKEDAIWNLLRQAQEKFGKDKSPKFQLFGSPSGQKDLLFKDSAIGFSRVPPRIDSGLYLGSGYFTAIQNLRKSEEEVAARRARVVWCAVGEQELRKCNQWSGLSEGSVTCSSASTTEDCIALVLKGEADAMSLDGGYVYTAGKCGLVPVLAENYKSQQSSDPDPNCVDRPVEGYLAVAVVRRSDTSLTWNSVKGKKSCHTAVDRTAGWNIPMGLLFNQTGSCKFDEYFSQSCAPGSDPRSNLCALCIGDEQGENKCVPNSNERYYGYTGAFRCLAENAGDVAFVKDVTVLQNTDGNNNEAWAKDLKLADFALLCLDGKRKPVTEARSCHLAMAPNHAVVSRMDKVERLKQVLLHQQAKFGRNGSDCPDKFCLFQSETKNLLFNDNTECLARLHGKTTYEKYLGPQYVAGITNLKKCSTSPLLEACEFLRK

Row | Activity [1] | Activity [2] | Activity [3] | Activity [4] | Activity [5] | Activity [6] | Activity [7] | Activity [8] | Activity [9] | Activity [10] | Activity [11] | Activity [12] | Activity [13] | Activity [14] | SMILES
1 | inactive | inactive | Active | Active | Active | Active | Active | Active | inactive | inactive | Active | Active | Active | Active | CC[C@H](C)[C@H](NC(=O)[C@H](C)NC(=O)CNC(=O)[C@H](CCCNC(=N)N)NC(=O)[C@@H](NC(=O)CCCC(C)=O)[C@@H](C)O)C(=O)N[C@H](C(=O)N[C@@H](CCC(N)=O)C(=O)N[C@H](C(=O)N1CCC[C@H]1C(=O)N[C@H](C(=O)N[C@@H](CC(C)C)C(=O)NCC(=O)N1CCC[C@H]1C(=O)N[C@H](C(=O)N[C@@H](CCC(N)=O)C(=O)N1CCC[C@H]1C(=O)N[C@H](C(=O)N[C@@H](CCCNC(=N)N)C(=O)N[C@H](C(N)=O)C(C)C)[C@@H](C)O)[C@@H](C)CC)[C@@H](C)O)[C@@H](C)O[C@H]1O[C@H](CO)[C@@H](O)[C@H](O)[C@@H]1O[C@@H]1O[C@H](CO)[C@@H](O[C@@H]2O[C@H](CO)[C@H](O)[C@H](O)[C@H]2O)[C@H](O)[C@H]1NC(C)=O)[C@@H](C)CC ({Hexanoyl(5-oxo)}-TRGAIIQT(X2)PTLGPIQPTRV-NH2)
2 | inactive | inactive | Active | Active | Active | Active | Active | Active | inactive | inactive | Active | Active | Active | Active | CC[C@H](C)[C@H](NC(=O)[C@H](C)NC(=O)CNC(=O)[C@H](CCCNC(=N)N)NC(=O)[C@@H](NC(=O)CCCC(C)=O)[C@@H](C)O)C(=O)N[C@H](C(=O)N[C@@H](CCC(N)=O)C(=O)N[C@H](C(=O)N1CCC[C@H]1C(=O)N[C@H](C(=O)N[C@@H](CC(C)C)C(=O)NCC(=O)N1CCC[C@H]1C(=O)N[C@H](C(=O)N[C@@H](CCC(N)=O)C(=O)N1CCC[C@H]1C(=O)N[C@H](C(=O)N[C@@H](CCCNC(=N)N)C(=O)N[C@H](C(N)=O)C(C)C)[C@@H](C)O[C@H]1O[C@H](CO)[C@@H](O)[C@H](O)[C@@H]1O[C@@H]1O[C@H](CO)[C@@H](O)[C@H](O)[C@H]1NC(C)=O)[C@@H](C)CC)[C@@H](C)O[C@H]1O[C@H](CO)[C@@H](O)[C@H](O)[C@@H]1O[C@@H]1O[C@H](CO)[C@@H](O)[C@H](O)[C@H]1NC(C)=O)[C@@H](C)O)[C@@H](C)CC ({Hexanoyl(5-oxo)}-TRGAIIQTPT(GlcNAc(β1-2)αMan)LGPIQPT(GlcNAc(β1-2)αMan)RV-NH2)
3 | inactive | inactive | Active | Active | Active | Active | Active | Active | inactive | inactive | Active | Active | Active | Active | CC[C@H](C)[C@H](NC(=O)[C@H](C)NC(=O)CNC(=O)[C@H](CCCNC(=N)N)NC(=O)[C@@H](NC(=O)CCCC(C)=O)[C@@H](C)O)C(=O)N[C@H](C(=O)N[C@@H](CCC(N)=O)C(=O)N[C@H](C(=O)N1CCC[C@H]1C(=O)N[C@H](C(=O)N[C@@H](CC(C)C)C(=O)NCC(=O)N1CCC[C@H]1C(=O)N[C@H](C(=O)N[C@@H](CCC(N)=O)C(=O)N1CCC[C@H]1C(=O)N[C@H](C(=O)N[C@@H](CCCNC(=N)N)C(=O)N[C@H](C(N)=O)C(C)C)[C@@H](C)O)[C@@H](C)CC)[C@@H](C)O[C@H]1O[C@H](CO)[C@@H](O)[C@H](O)[C@@H]1O[C@@H]1O[C@H](CO)[C@@H](O)[C@H](O)[C@H]1NC(C)=O)[C@@H](C)O)[C@@H](C)CC ({Hexanoyl(5-oxo)}-TRGAIIQTPT(GlcNAc(β1-2)αMan)LGPIQPTRV-NH2)
4 | inactive | inactive | Active | Active | Active | Active | Active | Active | inactive | inactive | Active | Active | Active | Active | CC[C@H](C)[C@H](NC(=O)[C@H](C)NC(=O)CNC(=O)[C@H](CCCNC(=N)N)NC(=O)[C@@H](NC(=O)CCCC(C)=O)[C@@H](C)O)C(=O)N[C@H](C(=O)N[C@@H](CCC(N)=O)C(=O)N[C@H](C(=O)N1CCC[C@H]1C(=O)N[C@H](C(=O)N[C@@H](CC(C)C)C(=O)NCC(=O)N1CCC[C@H]1C(=O)N[C@H](C(=O)N[C@@H](CCC(N)=O)C(=O)N1CCC[C@H]1C(=O)N[C@H](C(=O)N[C@@H](CCCNC(=N)N)C(=O)N[C@H](C(N)=O)C(C)C)[C@@H](C)O[C@H]1O[C@H](CO)[C@@H](O)[C@H](O)[C@@H]1O[C@@H]1O[C@H](CO)[C@@H](O)[C@H](O)[C@H]1NC(C)=O)[C@@H](C)CC)[C@@H](C)O[C@H]1O[C@H](CO)[C@@H](O)[C@H](O)[C@@H]1O[C@@H]1O[C@H](CO)[C@@H](O[C@@H]2O[C@H](CO)[C@H](O)[C@H](O[C@]3(C(=O)O)C[C@H](O)[C@@H](NC(C)=O)[C@H]([C@H](O)[C@H](O)CO)O3)[C@H]2O)[C@H](O)[C@H]1NC(C)=O)[C@@H](C)O)[C@@H](C)CC ({Hexanoyl(5-oxo)}-TRGAIIQTPT(X1)LGPIQPT(GlcNAc(β1-2)αMan)RV-NH2)
5 | inactive | inactive | Active | Active | Active | Active | Active | Active | inactive | inactive | Active | Active | Active | Active | CC[C@H](C)[C@H](NC(=O)[C@H](C)NC(=O)CNC(=O)[C@H](CCCNC(=N)N)NC(=O)[C@@H](NC(=O)CCCC(C)=O)[C@@H](C)O)C(=O)N[C@H](C(=O)N[C@@H](CCC(N)=O)C(=O)N[C@H](C(=O)N1CCC[C@H]1C(=O)N[C@H](C(=O)N[C@@H](CC(C)C)C(=O)NCC(=O)N1CCC[C@H]1C(=O)N[C@H](C(=O)N[C@@H](CCC(N)=O)C(=O)N1CCC[C@H]1C(=O)N[C@H](C(=O)N[C@@H](CCCNC(=N)N)C(=O)N[C@H](C(N)=O)C(C)C)[C@@H](C)O[C@H]1O[C@H](CO)[C@@H](O)[C@H](O)[C@@H]1O[C@@H]1O[C@H](CO)[C@@H](O[C@@H]2O[C@H](CO)[C@H](O)[C@H](O[C@]3(C(=O)O)C[C@H](O)[C@@H](NC(C)=O)[C@H]([C@H](O)[C@H](O)CO)O3)[C@H]2O)[C@H](O)[C@H]1NC(C)=O)[C@@H](C)CC)[C@@H](C)O[C@H]1O[C@H](CO)[C@@H](O)[C@H](O)[C@@H]1O[C@@H]1O[C@H](CO)[C@@H](O[C@@H]2O[C@H](CO)[C@H](O)[C@H](O[C@]3(C(=O)O)C[C@H](O)[C@@H](NC(C)=O)[C@H]([C@H](O)[C@H](O)CO)O3)[C@H]2O)[C@H](O)[C@H]1NC(C)=O)[C@@H](C)O)[C@@H](C)CC ({Hexanoyl(5-oxo)}-TRGAIIQTPT(X1)LGPIQPT(X1)RV-NH2)

— ChEMBL document CHEMBL4387728, “Synthetic glycopeptides reveal specific binding pattern and conformational change at O-mannosylated position of α-dystroglycan by POMGnT1 catalyzed GlcNAc modification” (Bioorg Med Chem, 2019)
